These results are taken from paper PMC11392399, “The final walk with preptin” (PLOS ONE, 2024).

The subject of experiment [1] is intracellular calcium in U-2 OS osteoblasts. In words: Changes in intracellular calcium, U-2 OS osteoblasts. The following applies: U-2 OS cells; 10^−4 M; Fluo-8 fluorescence, (Fmax−F0)/F0; one-way ANOVA. In kind it is cell-based, human. The protocol: The day before the experiment, U-2 OS, MC3T3-E1, MIN6 and cAMP-HEK cells were seeded 6 000 (for osteoblastic cell lines U-2 OS, MC3T3-E1), 10 000 (for cAMP-HEK cells) or 30 000 (MIN6) cells per well in a black 384-well format micro plate with transparent bottom (Cat.#: 142761, Nunc, Thermo Fisher Scientific, USA). On the next day, the cultivation media was exchanged for assay buffer, consisting of HBSS (Cat.#: H6648-500ML, Sigma-Aldrich, Merck, Germany), 20 mM HEPES (Cat.#: L0180-100, Biowest, France), 2.5 mM Probenecid (Cat.#: P8761, Sigma-Aldrich, Merck, Germany), adjusted for pH 7.4 and supplemented with 4.77 μM CalciFluor™ Fluo-8, AM (Cat.#: 1345980-40-6, Santa Cruz Biotechnology, USA). After 45 min incubation with assay buffer in 37°C and 5% CO2, the cells were incubated at RT in a dark place for another 15 minutes. After this time, preptin and its analogs were added by the Agilent Bravo Automated Liquid Handling Platform (Agilent Technologies, USA). The kinetics were measured by the Spark® multimode reader from Tecan (Tecan Group Ltd., Switzerland) for 10 min (approximately 45 cycles, excitation 485 nm, emission 535 nm, band width 10 nm). Before each kinetics, the background fluorescence (F0) was measured and the result was calculated as (Fmax−F0)/F0, where Fmax corresponds to the maximum response upon stimulation by the compounds. Each compound was tested in concentration 10^−4 M.
Background: Calcium assays in cells follow changes in intracellular calcium, usually with a dye or a luminescent sensor.

The test system of experiment [2] is mouse β-cell line βTC6-F7. The following applies: permanent mouse β-cell line βTC6-F7; ref [8] Buchanan et al.; cited from earlier work. From the text:
Cheng et al. observed an increase in insulin secretion at a glucose concentration of 25 mmol/l and Buchanan et al. used 10 mmol/l.

Experiment [3] deals with MIN6 pancreatic beta cells. In words: Stimulation of insulin secretion, radioimmunoassay. The following applies: basal glucose 10 mmol/l, various, very high concentrations of preptin, 1 h at 37°C, RIA. Format: cell-based, mouse. The protocol:
MIN6 cells were seeded at a density of 100 000 cells/well in 24-well culture dishes and grown for 3 days in 1 ml of complete medium. Before experiments, cells were maintained for 2 h in a glucose-free medium. Thereafter, the cells were washed twice and preincubated for 2 h at 37°C in 0.4 ml glucose-free Krebs-Ringer bicarbonate HEPES (KRBH) buffer of the following composition: 120 mM NaCl, 4.6 mM KCl, 2 mM CaCl2, 5 mM NaHCO3, 1 mM MgSO4, 0.4 mM KH2PO4, 0.15 mM Na2HPO4, BSA (0.2 % w/v), and 20 mM HEPES with pH value adjusted to 7.4 with NaOH. Next, the buffer was removed from cells and a new portion of 0.4 ml of glucose-free KRBH buffer, but with a respective concentration of glucose and/or preptin, was added to the cells, which were incubated for 1 h at 37°C. The cells were stimulated with various concentrations of D-glucose (0 and 10 mM) and the effects of various concentrations of mouse preptin were determined for 10 mM D-glucose concentration. After the stimulation, supernatants were collected from the cells and stored at −80°C before the measurement of insulin concentration.
Radioimmunoassay (RIA) kits for the measurement of rat insulin (sensitive Rat Insulin RIA Kit, Cat. # SRI-13K) content in samples were provided by EMD Millipore Corporation and were used according to the manufacturer’s instructions. Each biological sample was measured in duplicate.

In experiment [4] the test system is hBMSC-TERT. In words: Osteoblast differentiation of hBMSC-TERT, alkaline phosphatase (ALP) activity assay. Format: cell-based, human. The following applies: summary in the conclusions. How it is done:
(§1) hBMSC-TERT were plated at a density of 20 000 cells/cm^2 (Alizarin Red S staining) and 5 000 cells/well (ALP activity assay) in MEM medium (Gibco), supplemented with 10 % FBS (Gibco) and 1 % P/S (Gibco). One day after seeding, the medium was replaced with OB induction medium, composed of basal medium, supplemented with 10 mM B-glycerophosphate (Sigma-Aldrich), 10 nM dexamethasone (Sigma-Aldrich), 50 μg/mL vitamin C (Sigma-Aldrich), 10 nM vitamin D3 (Sigma-Aldrich) and treated with 100 ng/ml, 500 ng/ml and 1 ug/ml IGF2, IGF1, IGF2, preptin or vehicle (acetic acid) as a control. The medium was changed every other day for 7 days (ALP activity assay) or 10 days (Alizarin Red S staining).
ALP activity and cell viability assay were quantified at Day 7 of OB differentiation, in order to normalize the ALP activity data to the number of viable cells.
Cell viability assay was measured using a Cell Titer-Blue Assay Reagent (Promega) at fluorescence intensity (579Ex/584Em). ALP activity was detected by absorbance at 405 nm, using p-nitrophenyl phosphate (Sigma-Aldrich) as substrate.

Experiment [5] deals with hBMSC-TERT. In words: Osteoblast differentiation of hBMSC-TERT, Alizarin Red S staining. The following applies: increasing concentrations; day 10 of OB differentiation; compared to effects of IGF2 and preptin. In kind it is cell-based, human. How it is done:
as §1
Mineralized matrix formation at Day 10 of OB differentiation was measured, using Alizarin Red S staining. Cells were fixed with 70 % ice-cold ethanol for 1 h at -20°C, before addition of Alizarin Red S Solution (AR-S) (Sigma-Aldrich). The cells were stained for 10 min at room temperature (RT). Excess dye was washed with distilled water and with phosphate buffered saline (PBS) (Gibco) to reduce nonspecific AR-S stain.

The test system of experiment [6] is human primary osteoblasts. The following applies: 8 days, ref [17] Bosetti et al.; cited from earlier work.

Turning to “DVSTSQAVLPDDFPRYPVGKFFKFDTWRQSAGRL [peptide 19, native rat preptin]”, in experiment [1], the “changes in intracellular calcium relative to non-stimulated cells” value is “significant increase in intracellular calcium levels”. Besides, the “increase of insulin secretion” value in experiment [2] is listed as “able to increase insulin secretion”.
Take “DVSTSQAVLPDDFPRYPVGKFFQYDTWRQSAGRL [peptide 14, native mouse preptin]”: the “stimulation of insulin secretion” value in experiment [3] is “did not observe a significant increase in insulin secretion”.
Regarding “IGF1: insulin-like growth factor 1, comparator hormone”, the “osteoblast differentiation of hBMSCs” value with hBMSC-TERT [4] is reported as “only significant changes observed for IGF1”. In addition, in the experiment with hBMSC-TERT [5], the “Alizarin S staining of calcified matrix” value is listed as “largest changes”. For the same substance, in experiment [6], the “change in ALP activity” value was “only significant change in ALP activity”.
